What was measured:
EV-A71 H strain = test: protection against cytopathic effect (CPE) caused by EV-A71, Cell-Titer Glo; format: cell-based; conditions: for EC50: EV-A71 H strain, 3 days; for inhibition of the cytopathic effect caused by the virus: multiple cell lines infected with EV-A71 (FIG. 2)
Description: Human liver tumor cells (Huh7 cells) used in the experiment were purchased from Chinese National Infrastructure of Cell Line Resource. Human […] cells (RD cells) and African green monkey kidney cells (Vero cells) were purchased from ATCC (Cat. No.: CCL-136 and CCL-81, respectively). The above cells were cultured in a cell culture incubator at 37° C. and 5% CO2. The complete culture medium used for cell growth was DMEM high-glucose culture medium (purchased from Gibco, Cat. […] No.: 16000044) and penicillin-streptomycin (purchased from Gibco, Cat. No.: 2321152). The maintenance culture medium used for cell culture was DMEM high-glucose culture medium supplemented with 2% FBS and penicillin-streptomycin. H strain of EV-A71 was purchased from ATCC (Cat. No.: VR-1432). Compounds EIDD-1931 and EIDD-2801 were purchased from Shanghai Topscience Biochemical Technology Co., Ltd. (Cat Nos: […] and […], respectively), and their structures were shown in FIG. 1. Cell-Titer Glo® Luminescent Cell Viability Assay Solution was purchased from Promega (Cat. No.: G7572). The microplate reader, model Spectra Max M5, was purchased from Molecular Devices. Huh7 cells, RD cells, and Vero cells were seeded into a 96-well plate with a white wall and a transparent bottom at a density of about 1.0×10^4 per well and cultured at 37° C. and 5% CO2 for 24 hours. Then, the EV-A71 virus was diluted with cell maintenance solution and added to the 96-well plate to reach a final concentration of 100TCID50. […] After 3 days, the supernatant was discarded, and the diluted Cell-Titer Glo® Luminescent Cell Viability Assay Solution was added. The cells were shaken and lysed for 5 minutes in the dark, and then allowed to stand for 3 minutes. Finally, the luminescence value of each well was measured using the microplate reader. The formula for calculating the inhibition rate of the test compounds against virus was: [formula] Origin9.0 software was used to fit the inhibition rate-concentration S-shaped curve and calculate the half-maximal effective concentrations (EC50) of the test compounds. The half-cytotoxic concentrations (CC50) of the test compounds were calculated using the same method, and the select index (SI) was calculated based on EC50 and CC50: SI=CC50/EC50.

Vero cells = test: cytotoxicity test on Vero cells; format: cell-based, African green monkey; conditions: 3 days
Description: (§1) Human liver tumor cells (Huh7 cells) used in the experiment were purchased from Chinese National Infrastructure of Cell Line Resource. Human […] cells (RD cells) and African green monkey kidney cells (Vero cells) were purchased from ATCC (Cat. No.: CCL-136 and CCL-81, respectively). The above cells were cultured in a cell culture incubator at 37° C. and 5% CO2. The complete culture medium used for cell growth was DMEM high-glucose culture medium (purchased from Gibco, Cat. […] No.: 16000044) and penicillin-streptomycin (purchased from Gibco, Cat. No.: 2321152). The maintenance culture medium used for cell culture was DMEM high-glucose culture medium supplemented with 2% FBS and penicillin-streptomycin. H strain of EV-A71 was purchased from ATCC (Cat. No.: VR-1432). […] The microplate reader, model Spectra Max M5, was purchased from Molecular Devices. […] Finally, the luminescence value of each well was measured using the microplate reader. The inhibition rate of the test compounds at each dilution was calculated as follows: [formula] […] The half-cytotoxic concentrations (CC50) of the test compounds were calculated using the same method, and the select index (SI) was calculated based on EC50 and CC50: SI=CC50/EC50.

Huh7 cells = test: cytotoxicity test on Huh7 cells; format: cell-based, Human; conditions: 3 days
Description: as §1

EV-A71 RNA = test: inhibition of EV-A71 viral RNA replication (qRT-PCR) in RD cells; format: cell-based; conditions: 0.1 MOI, 30 hours (FIG. 3 B and D)
EV-A71 [1] = test: infectious virus particle formation in supernatant (TCID50 detection); format: cell-based; conditions: supernatant of RD cells, TCID50 (FIG. 3 A and C)
EV-A71 [2] = test: protection of 1-day-old ICR suckling mice with lethal EV-A71 infection; format: in vivo; conditions: for protective effect on ICR suckling mice inoculated with a lethal dose of EV-A71: 200, 66.6, 22.2, 7.41 mg/kg intraperitoneally once per day for 7 days
Description: 10 litters of 1-day-old ICR offspring female mice were randomly divided into 10 groups, namely, virus control group (2 groups), EIDD-1931 administration group (4 groups), and EIDD-2801 administration group (4 groups). The dosages of EIDD-1931 and EIDD-2801 were 200 mg/kg, 66.6 mg/kg, 22.2 mg/kg, and 7.41 mg/kg, respectively. Each mouse was challenged with 10^6 PFU intraperitoneally, and administrated the drug intraperitoneally 4 hours later. The mice of virus control group were administrated the drug solvent. And then, the drug was administered once per day for 7 consecutive days. The mice were weighed, and the survival and weight changes in the mice were recorded every day.
Log-Rank was used to calculate the statistical significance of the survival curve. p<0.05 indicated statistical significance.

EV-A71 [3] = test: EV-A71 viral load in ICR suckling mice tissues (qRT-PCR); format: in vivo; conditions: 200 mg/kg intraperitoneally once per day, 4th day (FIG. 7)
CV-A6 TW-2007-00141 = test: CPE protection, CV-A6 TW-2007-00141 strain; format: cell-based; conditions: CV-A6 TW-2007-00141, RD cells
CV-A16 190-D1 = test: CPE protection, CV-A16 190-D1 strain; format: cell-based; conditions: for EC50: CV-A16 190-D1, RD cells
CV-B3 Nancy = test: CPE protection, CV-B3 Nancy strain; format: cell-based; conditions: for EC50: CV-B3 Nancy, Vero cells

Structure (SMILES)	EC50 (EV-A71 H strain; Huh7 cells)	EC50 (EV-A71 H strain; RD cells)	EC50 (EV-A71 H strain; Vero cells)	SI (CC50/EC50) (EV-A71 H strain; Huh7 cells)	SI (CC50/EC50) (EV-A71 H strain; RD cells)	SI (CC50/EC50) (EV-A71 H strain; Vero cells)	inhibition of the cytopathic effect caused by the virus (EV-A71 H strain)	CC50 (Vero cells)	CC50 (Huh7 cells)	inhibition of replication of EV-A71 RNA (EV-A71 RNA)	inhibition of production of infectious viral particles (EV-A71 [1])	time within which the mice died (EV-A71 [2]; 7.41 mg/kg intraperitoneally)	protective effect on ICR suckling mice inoculated with a lethal dose of EV-A71 (EV-A71 [2])	viral loads in tissues or organs (brain, heart, small intestine, liver, hind limb muscle, lung) (EV-A71 [3])	EC50 (CV-A6 TW-2007-00141)	EC50 (CV-A16 190-D1)	EC50 (CV-B3 Nancy)	other results
O=c1nc(NO)ccn1[C@@H]1O[C@H](CO)[C@@H](O)[C@H]1O [EIDD-1931]	4.43 ± 0.33 µM	5.13 ± 0.56 µM	7.04 ± 0.38 µM	7.69	15.69	2.0	dose-dependently inhibit	14.1 ± 0.43 µM	34.09 ± 0.06 µM	dose-dependently inhibited	inhibited	≤ 12 days	dose-dependent protective effect	significantly reduced	17.7 ± 0.38 µM	4.14 ± 0.27 µM	3.65 ± 0.82 µM	survival rate (EV-A71 [2]; 22.2 mg/kg intraperitoneally): 60%; protection from the lethal dose of EV-71 virus (EV-A71 [2]; 66.6 mg/kg intraperitoneally): completely protect; protection from the lethal dose of EV-71 virus (EV-A71 [2]; 200 mg/kg intraperitoneally): completely protect; weight gain of surviving mice (EV-A71 [2]; 200, 66.6 and 22.2 mg/kg): good weight gain
CC(C)C(=O)OC[C@H]1O[C@@H](n2cc/c(=N\O)[nH]c2=O)[C@H](O)[C@@H]1O [EIDD-2801]	35.6 ± 0.47 µM	70.1 ± 4.4 µM	88.5 ± 3.18 µM	> 2.81	> 1.43	> 1.13	dose-dependently inhibit	> 100 µM	> 100 µM	dose-dependently inhibited	inhibited	≤ 13 days	dose-dependent protective effect	significantly reduced	> 100 µM	44.9 ± 4.23 µM	87.2 ± 10.8 µM	time within which the mice died (EV-A71 [2]; 22.2 mg/kg intraperitoneally): ≤ 13 days; survival rate (EV-A71 [2]; 66.6 mg/kg intraperitoneally): 67%; survival rate (EV-A71 [2]; 200 mg/kg intraperitoneally): 100%; inhibitory activity against CV-A16 (CV-A16 190-D1): low inhibitory activity; inhibitory activity against CV-B3 (CV-B3 Nancy): low inhibitory activity
